Assay results taken from PubChem BioAssay (NCI).
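Following 48 hours of exposure in 96-well plates, responses at five concentrations were used to interpolate endpoints linearly. GI50 = concentration required for 50% inhibition of growth. TGI denotes the concentration required for complete inhibition of growth.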

The compounds below were run on CAKI-1 renal (assay: inhibition of tumour cell growth, NCI panel, 48 h).
Work on `C[C@@]1(O)CC[C@]2(C)C3CCCC3[C@H]12` (some centres not stated) yielded a TGI of over 100 µM.
In the case of `COc1cc(-c2nc3sccn3c2-c2ccnc(NCCNS(=O)(=O)c3ccc(F)cc3)n2)ccc1F`, the GI50 is reported as 2530 nM and the TGI is reported as over 100 µM.
Work on `Cc1cc(Nc2ccc(C)c(Cl)c2)n2nc(C(F)(F)F)nc2n1` yielded a GI50 of 14600 nM and a TGI of 34.7 µM.
In the case of `COc1ccc(Cn2c(Br)c3c(c2Br)-c2nc(N)sc2CC3)cc1`, the GI50 is reported as 2900 nM and the TGI is reported as 10.4 µM.
`C#Cc1cccc(Nc2nc3cc([N+](=O)[O-])ccc3nc2Nc2ccc(O)cc2)c1` was tested, and the GI50 was 2190 nM and the TGI was 5.04 µM.
In the case of `O=C(Nc1nc(=S)[nH][nH]1)C(=O)C(C(=O)c1ccc2ccccc2c1)C1OC(=O)c2ccccc21` (configuration not stated), the TGI is reported as over 100 µM.
Work on `CN(C)CC(O)c1ccc(/C=C/c2ccc(Cl)cc2)cc1` (configuration not stated) yielded a GI50 of 706 nM and a TGI of 2.05 µM.
`Cc1nnc2ccnn2c1C` showed a GI50 of over 100000 nM and a TGI of over 100 µM.
Work on `Cn1cc(-c2cc3c(N4CCN(c5ncc([C@@](C)(N)c6ccc(F)cc6)cn5)CC4)ncnn3c2)cn1` yielded a GI50 of 2630 nM and a TGI of over 100 µM.
`O=C(O)CSc1n[nH]c(-c2ccccc2O)n1` was tested, and the TGI was over 100 µM.
`Cc1nc(-c2nc(C)c(C(=O)NNC(=O)C[n+]3ccccc3)s2)sc1C(=O)NNC(=O)C[n+]1ccccc1` was tested, and the TGI was 85.1 µM.
`CN(C)C=Nc1nc(=O)n(C2CCC(CO)O2)cc1F` (configuration not stated) showed a TGI of over 100 µM.
In the case of `C=C1C[C@H](O)[C@H](Br)C(C)(C)[C@@]12CCC(C)=C(Cl)C2`, the GI50 is reported as 133 nM and the TGI is reported as 13.2 µM.
Work on `O=c1[nH]c(-c2ccccc2)nc2cc(Cl)ccc12` yielded a TGI of over 100 µM.
With `CCCOc1nc(N)c2cnn(C3CCCCO3)c2n1` (configuration not stated) the TGI was over 100 µM.
With `C/C(CN1C(=O)c2ccccc2C1=O)=N\NS(=O)(=O)c1ccc(Cl)cc1` the TGI was over 100 µM.
For `COc1ccc(/C=C/COC(C)=O)cc1OC`, the TGI was over 100 µM.
For `CCOC(=O)n1cc(C2=C(c3ccc(OC)c(OC)c3)COC2=O)c2ccccc21`, the GI50 was 46.5 nM and the TGI was 37.1 µM.
With `CC(=O)OC1(C)N=NC2(CCCCC2)O1` (configuration not stated) the TGI was over 100 µM.
With `[O-][Cl+3]([O-])([O-])[O-].[O]=[Ru]=[O].c1ccc(-c2ccccn2)nc1.c1ccc(-c2ccccn2)nc1` the GI50 was over 100000 nM and the TGI was over 100 µM.
Compound `CN(C)c1ccc(/C=N/NC(=S)Nc2ccccc2)cc1` has a TGI of over 100 µM.
Work on `O=C1C(C(Nc2ccccc2)c2ccccc2)=C([O-])c2ccccc21.O=C1C(C(Nc2ccccc2)c2ccccc2)=C([O-])c2ccccc21.[Cu+2]` (configuration not stated) yielded a GI50 of over 100000 nM and a TGI of over 100 µM.
Compound `CN(C)CC1CCC/C1=N/OC(=O)c1ccccc1` (configuration not stated) has a TGI of over 100 µM.
For `Fc1cc(-c2nnc3n2N=C(c2ccc(Cl)cc2)CS3)c(Cl)cc1Cl`, the GI50 was 4610 nM and the TGI was 17.4 µM.
`O=C(NC1C=CCC2C(=O)N(c3ccccc3)C(=O)C12)OCc1ccccc1` (configuration not stated) showed a TGI of over 100 µM.
Compound `CCC(C)SC1SCC2C(=O)N(C)C3(CC3C)C(=O)OCC(NC(=O)c3nc4ccccc4cc3O)C(=O)NC(C)C(=O)N(C)C1C(=O)N(C)C1(CC1C)C(=O)OCC(NC(=O)c1nc3ccccc3cc1O)C(=O)NC(C)C(=O)N2C` (configuration not stated) has a GI50 of 0.087 nM.
Work on `CC(=O)OCc1ccc2c(c1)C(O)NC(=O)O2` (configuration not stated) yielded a TGI of over 100 µM.
In the case of `CC1(C)CC(c2c[nH]c3ccccc23)=CC2=Nc3ccccc3C21O` (configuration not stated), the TGI is reported as over 100 µM.
Work on `CN1C(=O)C(=O)N2c3ccc(Cl)cc3C3(c4ccccc4)N=CC12O3` (configuration not stated) yielded a TGI of 42.7 µM.
`COc1ccc(CN2C(=O)C(Cl)=C(Nc3cccc(C(F)(F)F)c3)C2=O)cc1` showed a GI50 of 5160 nM and a TGI of 24.4 µM.
In the case of `NCCNCCNCCN`, the GI50 is reported as over 100000 nM and the TGI is reported as over 100 µM.
Compound `COc1ccc(C(c2cc(OC)c(OC)c(OC)c2)n2cncn2)cc1O` (configuration not stated) has a GI50 of 567 nM and a TGI of over 100 µM.
In the case of `N#CCCC[Si]12OCCN(CCO1)CCO2`, the TGI is reported as over 100 µM.
Compound `O=C(/C=C/c1c(O)ccc2ccccc12)c1ccc([N+](=O)[O-])cc1` has a TGI of over 74 µM.

What follows are compounds tested on HCC-2998 colon (assay: inhibition of tumour cell growth, NCI panel, 48 h).
In the case of `C[C@@]1(O)CC[C@]2(C)C3CCCC3[C@H]12` (some centres not stated), the TGI is reported as over 100 µM.
`COc1cc(-c2nc3sccn3c2-c2ccnc(NCCNS(=O)(=O)c3ccc(F)cc3)n2)ccc1F` gave a GI50 of 3.21 µM and a TGI of over 100 µM.
Work on `Cc1cc(Nc2ccc(C)c(Cl)c2)n2nc(C(F)(F)F)nc2n1` yielded a GI50 of 40.8 µM and a TGI of over 100 µM.
`COc1ccc(Cn2c(Br)c3c(c2Br)-c2nc(N)sc2CC3)cc1` showed a GI50 of 13.3 µM and a TGI of 28.2 µM.
`CC(=O)[O-].CC(=O)[O-].O=C(N/N=C/c1cc(Cl)cc(Cl)c1O)c1ccncc1.[Cu+2]` was tested, and the TGI was over 100 µM.
For `C#Cc1cccc(Nc2nc3cc([N+](=O)[O-])ccc3nc2Nc2ccc(O)cc2)c1`, the GI50 was 1.75 µM and the TGI was 3.45 µM.
Compound `O=C(Nc1nc(=S)[nH][nH]1)C(=O)C(C(=O)c1ccc2ccccc2c1)C1OC(=O)c2ccccc21` (configuration not stated) has a TGI of 24 µM.
In the case of `CN(C)CC(O)c1ccc(/C=C/c2ccc(Cl)cc2)cc1` (configuration not stated), the GI50 is reported as 1.54 µM and the TGI is reported as 2.97 µM.
`Cc1nnc2ccnn2c1C` gave a GI50 of 18.1 µM and a TGI of 33.1 µM.
`CCOC(=O)C1=C(C)N(NC(=O)Nc2ccccc2)C2(N)N(NC(=O)Nc3ccccc3)C(C)=C(C(=O)OCC)C12C(=O)OCC` (configuration not stated) was tested, and the TGI was 80.8 µM.
`Cn1cc(-c2cc3c(N4CCN(c5ncc([C@@](C)(N)c6ccc(F)cc6)cn5)CC4)ncnn3c2)cn1` was tested, and the GI50 was 4.23 µM and the TGI was over 100 µM.
In the case of `O=C(O)CSc1n[nH]c(-c2ccccc2O)n1`, the TGI is reported as over 100 µM.
`Cc1nc(-c2nc(C)c(C(=O)NNC(=O)C[n+]3ccccc3)s2)sc1C(=O)NNC(=O)C[n+]1ccccc1` gave a TGI of over 100 µM.
With `CN(C)C=Nc1nc(=O)n(C2CCC(CO)O2)cc1F` (configuration not stated) the TGI was over 100 µM.
Work on `C=C1C[C@H](O)[C@H](Br)C(C)(C)[C@@]12CCC(C)=C(Cl)C2` yielded a GI50 of 0.568 µM and a TGI of 14 µM.
For `O=c1[nH]c(-c2ccccc2)nc2cc(Cl)ccc12`, the TGI was over 100 µM.
Work on `Cc1ccc(S(=O)(=O)N2CCC2c2ccccc2)cc1` (configuration not stated) yielded a TGI of over 100 µM.
`CCCOc1nc(N)c2cnn(C3CCCCO3)c2n1` (configuration not stated) was tested, and the TGI was over 100 µM.
For `C/C(CN1C(=O)c2ccccc2C1=O)=N\NS(=O)(=O)c1ccc(Cl)cc1`, the TGI was over 100 µM.
Work on `COc1ccc(/C=C/COC(C)=O)cc1OC` yielded a TGI of over 100 µM.
With `CCOC(=O)n1cc(C2=C(c3ccc(OC)c(OC)c3)COC2=O)c2ccccc21` the GI50 was 0.0891 µM and the TGI was 16.5 µM.
Compound `[O-][Cl+3]([O-])([O-])[O-].[O]=[Ru]=[O].c1ccc(-c2ccccn2)nc1.c1ccc(-c2ccccn2)nc1` has a GI50 of 88.6 µM and a TGI of over 100 µM.
Compound `CN(C)CC1CCC/C1=N/OC(=O)c1ccccc1` (configuration not stated) has a TGI of over 100 µM.
Work on `CCOC(=O)C1Sc2ccccc2N=C1C` (configuration not stated) yielded a TGI of over 100 µM.
Compound `Fc1cc(-c2nnc3n2N=C(c2ccc(Cl)cc2)CS3)c(Cl)cc1Cl` has a GI50 of 15.9 µM and a TGI of 31.1 µM.
For `O=C(NC1C=CCC2C(=O)N(c3ccccc3)C(=O)C12)OCc1ccccc1` (configuration not stated), the TGI was over 100 µM.
`CCC(C)SC1SCC2C(=O)N(C)C3(CC3C)C(=O)OCC(NC(=O)c3nc4ccccc4cc3O)C(=O)NC(C)C(=O)N(C)C1C(=O)N(C)C1(CC1C)C(=O)OCC(NC(=O)c1nc3ccccc3cc1O)C(=O)NC(C)C(=O)N2C` (configuration not stated) was tested, and the TGI was 0.000369 µM.
Compound `Cc1[cH-]c(=O)n(-c2ccccc2)n1.[Au+].[Au].c1ccc([PH+](c2ccccc2)c2ccccc2)cc1.c1ccc([PH+](c2ccccc2)c2ccccc2)cc1` has a GI50 of over 100 µM and a TGI of over 100 µM.
`CN1C(=O)C(=O)N2c3ccc(Cl)cc3C3(c4ccccc4)N=CC12O3` (configuration not stated) gave a TGI of 28.4 µM.
`COc1ccc(CN2C(=O)C(Cl)=C(Nc3cccc(C(F)(F)F)c3)C2=O)cc1` gave a GI50 of 8.46 µM and a TGI of 25.9 µM.
Compound `NCCNCCNCCN` has a GI50 of over 100 µM and a TGI of over 100 µM.
For `COc1ccc(C(c2cc(OC)c(OC)c(OC)c2)n2cncn2)cc1O` (configuration not stated), the GI50 was 1.35 µM and the TGI was over 100 µM.
In the case of `N#CCCC[Si]12OCCN(CCO1)CCO2`, the TGI is reported as over 100 µM.
`O=C(/C=C/c1c(O)ccc2ccccc12)c1ccc([N+](=O)[O-])cc1` showed a TGI of over 100 µM.

The compounds below were run on MDA-MB-435 (assay: inhibition of tumour cell growth, NCI panel, 48 h).
Work on `COc1cc(-c2nc3sccn3c2-c2ccnc(NCCNS(=O)(=O)c3ccc(F)cc3)n2)ccc1F` yielded a GI50 of 1.11 µM and a TGI of 5.5 µM.
`Cc1cc(Nc2ccc(C)c(Cl)c2)n2nc(C(F)(F)F)nc2n1` was tested, and the GI50 was 19 µM and the TGI was 55.6 µM.
